Results taken from the supplement of paper PMC10627819.

Experiments:
[1] = system: S. aureus Newman; experiment: fitness (endpoint OD595 vs no drug) (fraction); higher = more growth
Method in brief: (§1)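 At 37 °C, bacteria in TSB, LB Lennox or CY were grown in 384-well plates from a starting OD595 of 0.01. OD595 was measured every 30 min for 14 h, with the first reading used as background. Fitness is the optical density at the switch to stationary phase as a fraction of the robust mean of no-drug control wells, capped at 1.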

[2] = system: S. pneumoniae D39V; experiment: as above
Method in brief: as §1

[3] = system: B. subtilis 168; experiment: as above
Method in brief: as §1

[4] = system: S. aureus DSM 20231; experiment: as above
Method in brief: as §1

[5] = system: S. aureus Newman; experiment: Bliss interaction score (quartile over a dose matrix) (fitness difference); higher = more antagonism (negative = synergy)
Method in brief: (§2)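 The Bliss score is observed minus expected fitness, where expected fitness is the product of the single-drug fitness values inferred from the combination data. Fitness is the OD595 at the onset of stationary phase over the plate's robust no-drug mean, capped at 1. Scores are summarised by quartiles over technical, biological and donor/recipient replicates.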

[6] = system: S. pneumoniae D39V; experiment: as above
Method in brief: as §2

[7] = system: B. subtilis 168; experiment: as above
Method in brief: as §2

[8] = system: S. aureus DSM 20231; experiment: as above
Method in brief: as §2
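Throughout, for Bliss interaction score (quartile over a dose matrix): first quartile when negative (synergy) and third quartile when positive (antagonism).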
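Throughout, for fitness (endpoint OD595 vs no drug): OD595 on entry to stationary phase over no-drug wells; at most 1.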

CCC[C@@H]1C[C@@H](C(=O)N[C@@H]([C@H]2O[C@H](SC)[C@H](O)[C@@H](O)[C@H]2O)[C@H](C)Cl)N(C)C1 [Clindamycin] + COc1c(N2C[C@@H]3CCCN[C@@H]3C2)c(F)cc2c(=O)c(C(=O)O)cn(C3CC3)c12 [Moxifloxacin]
Details | fitness
[1], first compound 0.0312 µg/mL, partner 0.0075 µg/mL | 0.63
[1], first compound 0.0312 µg/mL, partner 0.015 µg/mL | 0.553
[1], first compound 0.0625 µg/mL, partner 0.015 µg/mL | 0.361
[1], first compound 0.0625 µg/mL, partner 0.03 µg/mL | 0.251
[1], first compound 0.125 µg/mL, partner 0.0075 µg/mL | 0.111
[1], first compound 0.125 µg/mL, partner 0.015 µg/mL | 0.0621
[1], first compound 0.125 µg/mL, partner 0.03 µg/mL | 0.0456
[2], first compound 0.0125 µg/mL, partner 0.0312 µg/mL | 0.182
[2], first compound 0.0125 µg/mL, partner 0.0625 µg/mL | 0.0996
[2], first compound 0.0125 µg/mL, partner 0.125 µg/mL | 0.0702
[2], first compound 0.015 µg/mL, partner 0.005 µg/mL | 0.87
[2], first compound 0.015 µg/mL, partner 0.01 µg/mL | 0.932
[2], first compound 0.015 µg/mL, partner 0.02 µg/mL | 0.88
[2], first compound 0.025 µg/mL, partner 0.0312 µg/mL | 0.13
[2], first compound 0.025 µg/mL, partner 0.0625 µg/mL | 0.107
[2], first compound 0.025 µg/mL, partner 0.125 µg/mL | 0.067
[2], first compound 0.03 µg/mL, partner 0.005 µg/mL | 0.778
[2], first compound 0.03 µg/mL, partner 0.01 µg/mL | 0.798
[2], first compound 0.03 µg/mL, partner 0.02 µg/mL | 0.744
[2], first compound 0.05 µg/mL, partner 0.0312 µg/mL | 0.0658
[2], first compound 0.05 µg/mL, partner 0.0625 µg/mL | 0.0748
[2], first compound 0.05 µg/mL, partner 0.125 µg/mL | 0.0719
[2], first compound 0.06 µg/mL, partner 0.005 µg/mL | 0.627
[2], first compound 0.06 µg/mL, partner 0.01 µg/mL | 0.674
[2], first compound 0.06 µg/mL, partner 0.02 µg/mL | 0.606
[3], first compound 0.0625 µg/mL, partner 0.0312 µg/mL | 0.0693
[3], first compound 0.0625 µg/mL, partner 0.0625 µg/mL | 0.0631
[3], first compound 0.0625 µg/mL, partner 0.125 µg/mL | 0.046
[3], first compound 0.0625 µg/mL, partner 2 µg/mL | 0.0362
[3], first compound 0.0625 µg/mL, partner 4 µg/mL | 0.0401
[3], first compound 0.0625 µg/mL, partner 8 µg/mL | 0.0456
[3], first compound 0.125 µg/mL, partner 0.0312 µg/mL | 0.0619
[3], first compound 0.125 µg/mL, partner 0.0625 µg/mL | 0.0693
[3], first compound 0.125 µg/mL, partner 0.125 µg/mL | 0.0534
[3], first compound 0.125 µg/mL, partner 2 µg/mL | 0.0368
[3], first compound 0.125 µg/mL, partner 4 µg/mL | 0.0309
[3], first compound 0.125 µg/mL, partner 8 µg/mL | 0.0299
[3], first compound 0.25 µg/mL, partner 0.0312 µg/mL | 0.0478
[3], first compound 0.25 µg/mL, partner 0.0625 µg/mL | 0.0597
[3], first compound 0.25 µg/mL, partner 0.125 µg/mL | 0.0484
[3], first compound 0.25 µg/mL, partner 2 µg/mL | 0.0444
[3], first compound 0.25 µg/mL, partner 4 µg/mL | 0.0401
[3], first compound 0.25 µg/mL, partner 8 µg/mL | 0.0192
[4], first compound 0.0625 µg/mL, partner 0.0075 µg/mL | 0.0874
[4], first compound 0.0625 µg/mL, partner 0.015 µg/mL | 0.0867
[4], first compound 0.125 µg/mL, partner 0.0075 µg/mL | 0.0621
[4], first compound 0.125 µg/mL, partner 0.015 µg/mL | 0.0276
[4], first compound 0.125 µg/mL, partner 0.03 µg/mL | 0.0423

fitness, one replicate
Details | first compound 0.0039 µg/mL | first compound 0.0078 µg/mL | first compound 0.0156 µg/mL | first compound 0.0312 µg/mL | first compound 0.0625 µg/mL | first compound 0.125 µg/mL
[3], partner 0.0312 µg/mL | 0.73 | 0.575 | 0.5 | – | – | –
[3], partner 0.0625 µg/mL | 0.061 | 0.05 | 0.0579 | – | – | –
[3], partner 0.125 µg/mL | 0.0192 | 0.0118 | 0.0291 | – | – | –
[4], partner 0.06 µg/mL | – | – | – | 0.628 | 0.628 | 0.109
[4], partner 0.12 µg/mL | – | – | – | 0.515 | 0.516 | 0.0784

Details | Bliss interaction score
[5] | 0.0705
[6] | 0.0859
[7] | 0.041
[8] | 0.0751

O=C(O[C@@H]1Cc2c(O)cc(O)cc2O[C@@H]1c1cc(O)c(O)c(O)c1)c1cc(O)c(O)c(O)c1 [EGCG] + COc1ccc(C[C@H](N)C(=O)N[C@H]2[C@@H](O)[C@H](n3cnc4c(N(C)C)ncnc43)O[C@@H]2CO)cc1 [Puromycin]
fitness
Details | first compound 6.25 µg/mL | first compound 12.5 µg/mL | first compound 25 µg/mL | first compound 50 µg/mL
[1], partner 0.39 µg/mL | – | 0.802 | 0.779 | 0.657
[1], partner 0.78 µg/mL | – | 0.809 | 0.789 | –
[1], partner 1.56 µg/mL | – | 0.846 | 0.787 | –
[2], partner 1 µg/mL | – | 0.949 | – | 0.965
[2], partner 2 µg/mL | – | 0.895 | 0.917 | 0.91
[2], partner 4 µg/mL | – | – | 0.384 | –
[3], partner 0.39 µg/mL | 0.91 | – | – | –
[3], partner 0.78 µg/mL | 0.953 | – | – | –
[3], partner 1.56 µg/mL | 0.885 | – | – | –
[4], partner 0.39 µg/mL | – | 0.908 | 0.842 | –
[4], partner 0.78 µg/mL | – | 0.888 | 0.812 | 0.845
[4], partner 1.56 µg/mL | – | 0.864 | 0.846 | 0.777

fitness, [4], one replicate
Details | first compound 12.5 µg/mL | first compound 25 µg/mL | first compound 50 µg/mL
partner 3.12 µg/mL | 0.846 | 0.945 | 0.676
partner 6.24 µg/mL | 0.745 | 0.527 | 0.172

Details | Bliss interaction score
[5] | 0.0755
[6] | 0.0916
[7] | -0.0503
[8] | 0.09
